The record followed here is patent US20190177279A1, “CARBOXYLIC ACID AROMATIC 1,2-CYCLOPROPYLAMIDES” (Bayer Pharma Aktiengesellschaft, priority 2017, published 2019).

In one data set the test system is IL-6 secretion. In words: Bradykinin B1 receptor agonist-induced secretion of IL-6 in human IMR-90 cells. It counts as cell-based. The conditions noted are these: 0.1 μM Lys-[Des-Arg9]Bradykinin and 0.1 μM Sar-[D-Phe8]-des-Arg9-Bradykinin, 5 hours. An excerpt: Inhibitory Activity on Bradykinin B1 Receptor Agonist-Induced Secretion of IL-6 and IL-8 in Human IMR-90 Cells
The effect of the compound examples on secretion of the cytokine IL-6 and IL-8 was investigated in the human foetal lung fibroblast IMR-90 cell line. Here the induction of the cytokine secretion was induced by the Bradykinin B1 receptor agonists Lys-[Des-Arg9]Bradykinin (CAS 71800-36-7, Tocris Bioscience) and Sar-[D-Phe8]-des-Arg9-Bradykinin (CAS 126959-88-4, Tocris Bioscience) leading to the activation of the Bradykinin B1-driven signalling pathway. […]
IMR-90 cells were cultured in Eagle's Minimum Essential Medium (EMEM) containing 2 mM L-glutamine, 1 g/L glucose, 1.5 g/L NaHCO3, 1 mM sodium pyruvate and non-essential amino acids (ATCC, 30-2003™) supplemented with 10% FBS (Biochrom, 50615) and 50 U/mL Penicillin, 50 μg/mL Streptomycin (PAA, P11-010). […] The compound examples were serially diluted in 100% DMSO and evaluated at 8 different concentrations within the range of 3 nM and 10 μM and a final DMSO concentration of 0.4%. […] The amount of IL-6 and IL-8 in the supernatant was determined using the Human ProInflammatory Panel II (4-Plex) (MSD, K15025B) according to manufacturer's instruction. […] The cell viability was measured using the CellTiter-Glo Luminescent Assay (Promega, G7571) following the manufacturers protocol. […]

Another data set concerns stimulated IMR-90 cells. Put plainly: Cell viability, CellTiter-Glo Luminescent Assay. The data set is classed as cell-based, human. Here is the method:
IMR-90 cells were cultured in Eagle's Minimum Essential Medium (EMEM) containing 2 mM L-glutamine, 1 g/L glucose, 1.5 g/L NaHCO3, 1 mM sodium pyruvate and non-essential amino acids (ATCC, 30-2003™) supplemented with 10% FBS (Biochrom, 50615) and 50 U/mL Penicillin, 50 μg/mL Streptomycin (PAA, P11-010). The assay was performed in EMEM and a cell density of […] IMR-90 cells/96-well. The compound examples were serially diluted in 100% DMSO and evaluated at 8 different concentrations within the range of 3 nM and 10 μM and a final DMSO concentration of 0.4%. The IMR-90 cells were incubated with the respective concentration of the compound for 30 min. […] The amount of IL-6 and IL-8 in the supernatant was determined using the Human ProInflammatory Panel II (4-Plex) (MSD, K15025B) according to manufacturer's instruction. […] Plates were washed three times with phosphate-buffered saline (PBS; 137 mM NaCl, 2.7 mM KCl, 6.5 mM Na2HP04, 1.7 mM KH2P04) containing 0.05% Tween-20 (Bio-Rad, 161-0781) and electrochemiluminescence detected using the MSD Sector Imager 6000 plate reader. The cell viability was measured using the CellTiter-Glo Luminescent Assay (Promega, G7571) following the manufacturers protocol. […] After incubation and shaking for 10 minutes luminescent signal was measured which was proportional to the amount of ATP present. […]

SMILES strings stand for the structures.

Turning to `O=C(O)c1cc(NC(=O)C2CC2c2ccc(Cl)cc2)cc(F)c1-c1cnn(C2CCC2)c1` (racemic) [Example 2, 5-({[2-(4-chlorophenyl)cyclopropyl]carbonyl}amino)-2-(1-cyclobutyl-1H-pyrazol-4-yl)-3-fluorobenzoic acid], the IC50 in the data set on IL-6 secretion amounted to 322 nM. Further, the “effect on the cell viability” value with stimulated IMR-90 cells was “no effect”.

Broadly, the IC50 is the point on the concentration scale where inhibition reaches its midpoint. The low end stands for greater potency in that assay, the high end for weaker potency in that assay.
